Experimental data: patent US20240374646A1, “COMPOSITION FOR INHIBITING INFLAMMATION OR AGING OF STEM CELLS, AND METHOD FOR INHIBITING INFLAMMATION OR AGING BY USING SAME” (MITOIMMUNE THERAPEUTICS INC., priority 2021, published 2024)

Key:
[1] = test system: TNF-α/IFN-γ-exposed hPD-MSCs; assay: MSC morphology: bright-field and phalloidin/Hoechst fluorescence images; type: cell-based, human; details: hPD-MSCs with 2.5 ng/mL TNF-α and 25 ng/mL IFN-γ, 24 hours; FIG. 1A
Experimental: Human placenta-derived mesenchymal stem cells (hPD-MSCs) were harvested from inside the placental chorion, and the harvested cells were cultured in an alpha-Minimum Essential medium (Cytiva, Marlborough, MA, USA) supplemented with 10% fetal bovine serum (ThermoFisher, Waltham, MA, USA), 1% penicillin/streptomycin (ThermoFisher, Waltham, MA, USA), 25 ng/mL human fibroblast growth factor-4 (Peprotech, Rocky Hill, NJ, USA) and 1 μg/mL heparin (Merck, San Francisco, CA, USA). A total of 1×10^5 hPD-MSCs were seeded in a cell culture dish (90×20 mm) (SPL, Pocheon, Korea) and cultured at 37° C. in an incubator containing 5% CO2. The cells were subcultured every 4 days until reaching 70 to 80% confluency. Expanded cells were obtained at passage 12 or 13. During subculture, viable cells were stained with Trypan blue (Merck) and the number of cells was manually counted. […] The morphology of MSCs was confirmed by bright-field images and fluorescence microscope images, stained cells were identified by phalloidin, which specifically labels the F-actin structure, and Hoechst 33342, which labels nuclei, in the fluorescence image, and the results are shown in FIG. 1A. […]

mTOR = assay: Western blotting, mTOR phosphorylation ratio (mTORC1 pathway); type: cell-based, human; details: vs MSC control exposed to TNF-α/IFN-γ; FIG. 4D
Experimental: Further, the phosphorylation-induced activation ratios of AKT/mTOR/S6K, which represents the mTORC1 pathway, was analyzed. mTORC1 activation is known to not only induce senescence-associated phenotypes in MSCs, but also impair quiescence and sternness. In the present experiment, the phosphorylation ratio was confirmed using western blotting analysis as described below.
Proteins were extracted with a Pro-Prep protein lysis buffer (iNtRON) and quantified by a protein quantitative analysis kit (BIOMAX, Seoul, Korea). Samples were then heated in 4× Laemmli sample buffer (Bio-Rad) containing 2-mercaptoethanol (Bio-Rad), and proteins were loaded onto an 8% sodium dodecyl sulfate polyacrylamide gel and electrophoresed at 60 V for 30 minutes, and then electrophoresed at 120 V for 1 hour. […]
Immunoreactive bands were detected using an enhanced chemiluminescence detection reagent (Clarity™ Western blot substrate, Bio-Rad) and images of the bands were obtained using ImageSaver Version 6 (ATTO, Tokyo, Japan). The intensity of each band was analyzed with CA4 analyzer software (ATTO), and each experiment was performed in triplicate under the same conditions. […]

O=S1(=O)CCN(Cc2cc(NC3CCOCC3)c3[nH]c(-c4ccccc4)cc3c2)CC1 [example compound, 5-[(1,1-dioxido-4-thiomorpholinyl)methyl]-2-phenyl-N-(tetrahydro-2H-pyran-4-yl)-1H-indole-7-amine]
abnormal morphology and disorganized microfilaments (F-actin cytoskeletal structure) [1]: remarkably improved to levels similar to those of the untreated MSC control
reduction of mTOR phosphorylation ratio (pmTOR/mTOR) (mTOR): ~30%
